{"source": "paper PMC4840272", "about": "(Neoplasia (New York, N.Y.), 2016)", "origin": "cited, not measured here", "conditions": "cited from earlier work", "data": [{"smiles": "Cn1c(CCCC(=O)O)nc2cc(N(CCCl)CCCl)ccc21", "note": "[bendamustine]", "values": [{"measurement": "elimination t1/2", "result": "approximately 40 minutes"}]}]}
